One may read the IC50 as the concentration at which inhibition is half-maximal.

“Also recorded” adds a separate entry of the source. Where two headings read alike, the source gives them in different places.

The values that follow come from patent publication US20260083751A1, “ALLOSTERIC MODULATORS OF ANDROGEN RECEPTOR COACTIVATOR RECRUITMENT FOR CRPC THERAPY” (University of Pittsburgh – Of the Commonwealth System of …, priority 2022, published 2026).

What all share (type): cell-based
The test system of assay [1] is DHT-induced full length AR PSA promoter-driven transcription in C4-2 CRPC cells. In words: PSA-6.1 luciferase reporter assay in C4-2 CRPC cells. How it is done: Prostate Specific Antigen (PSA)-6.1 Luciferase Reporter Assay in the C4-2 CRPC Cell Line: The PSA-6.1-Luc luciferase reporter plasmid was provided by Dr. Zhou Wang in the Urology department of the University of Pittsburgh Cancer Institute. The PSA-6.1-Luc reporter is controlled by a fragment of the PSA promoter that contains at least three AREs. The PSA-6.1-Luc plasmid (12 ng/well) was combined with FuGENE® 6 transfection agent at a ratio 6:1 in SFM and incubated for 25 minutes at room temperature before being combined with C4-2 cells suspended in RPMI 1640 media containing 1% penicillin-streptomycin, 1% L-glutamine, and 10% FBS. Transfected cells were then seeded into white opaque 384-well assay plates (Greiner Bio-one, #781080) at 6,000 cells per well in a volume of 30 μL and incubated in 5% CO2, 37° C., and 95% humidity for 24 h.

For assay [2], the system named is DHT-induced AR-mediated PSA promoter-driven transcription in PC3-AR-FL-GFP cells. Put plainly: PSA promoter-driven transcription in PC3-AR-FL-GFP cells. The procedure:
Compounds 1-5 were assessed to determine whether each compound could block DHT-induced AR-TIF2 PPI (protein-protein interaction complex) formation and/or disrupt preformed DHT-induced AR-TIF2 PPIs. Additionally, the following activities were evaluated: • inhibition of DHT-induced AR-mediated PSA promoter-driven transcription in C4-2 CRPC cells; • inhibition of DHT-induced AR-LBD PPI interactions with TIF2 and SRC1 coactivators; • inhibition of DHT-induced AR-LBD PPI interactions with TIF2 Box III-LXXLL peptide; • inhibition of H^3-DHT binding to AR-LBD; • inhibition of DHT-induced AR-mediated PSA promoter-driven transcription in PC3-AR-FL-GFP cells; • inhibition of constitutive AR-V7-mediated PSA promoter-driven transcription in PC3-AR-V7 GFP cells; • inhibition of constitutive UBE2C promoter-driven transcription in PC3-AR-V7 GFP cells; • inhibition of growth in AR-negative prostate cancer (PCa) cell lines PC3 and DU145; and • inhibition of growth in AR-positive PCa cell lines LNCap, C4-2 (CRPC), and 22Rv1 (CRPC).

In the next assay the target is T1, AR (Homo sapiens, UniProt P10275, T878A).
T1 construct: the amount of soluble AR protein in heat shocked C4-2 cell lysates; endogenous in cells; host or cells: C4-2 castration resistant prostate cancer cells
T1 sequence (P10275 1-920 T878A): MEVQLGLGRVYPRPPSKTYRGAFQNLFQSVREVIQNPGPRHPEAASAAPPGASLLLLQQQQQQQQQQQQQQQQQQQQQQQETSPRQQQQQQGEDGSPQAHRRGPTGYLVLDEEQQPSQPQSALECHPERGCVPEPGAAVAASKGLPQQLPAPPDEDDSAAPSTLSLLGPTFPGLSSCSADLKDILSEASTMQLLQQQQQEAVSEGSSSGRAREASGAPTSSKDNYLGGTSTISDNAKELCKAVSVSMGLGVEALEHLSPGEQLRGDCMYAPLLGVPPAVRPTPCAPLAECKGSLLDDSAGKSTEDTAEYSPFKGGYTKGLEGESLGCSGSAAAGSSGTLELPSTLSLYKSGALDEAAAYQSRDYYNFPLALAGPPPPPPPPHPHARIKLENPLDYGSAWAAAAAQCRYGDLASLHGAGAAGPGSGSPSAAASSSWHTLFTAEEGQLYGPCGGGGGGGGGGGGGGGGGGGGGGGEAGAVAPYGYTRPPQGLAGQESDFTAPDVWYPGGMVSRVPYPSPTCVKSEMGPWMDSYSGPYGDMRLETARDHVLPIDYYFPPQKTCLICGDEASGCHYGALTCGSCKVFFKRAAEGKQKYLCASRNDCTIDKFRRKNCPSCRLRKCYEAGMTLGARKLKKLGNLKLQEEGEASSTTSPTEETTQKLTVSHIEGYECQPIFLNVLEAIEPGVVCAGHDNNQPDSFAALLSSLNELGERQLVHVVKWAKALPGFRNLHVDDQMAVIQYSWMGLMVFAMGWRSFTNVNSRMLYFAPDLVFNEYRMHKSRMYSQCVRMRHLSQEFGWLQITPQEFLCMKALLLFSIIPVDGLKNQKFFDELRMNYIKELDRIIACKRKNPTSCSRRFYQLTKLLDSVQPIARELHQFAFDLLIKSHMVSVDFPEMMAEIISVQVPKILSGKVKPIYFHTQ
Put plainly: AlphaScreen cellular thermal shift assay (CETSA) for AR target engagement in C4-2 cells. The note with it: for AR thermal stability at 46° C., compound alone / DHT-induced (DHT-enhanced) AR thermal stability at 46° C.: C4-2 cells; for AR thermal stability at 46° C., compound alone: 20 μM where stated, 46° C. for 5 min; for DHT-induced (DHT-enhanced) AR thermal stability at 46° C.: compound 20 μM where stated, 10 nM DHT; for DHT-enhanced AR stability at 46° C.: 20 μM and 50 μM compound; for Right shift of the DHT EC50: 20 or 50 μM compound; for Maximum efficacy of DHT-enhanced AR thermal stabilization: S2-6 at 20 or 50 μM, S3-11 at 50 μM; for IC50: read-out: IC50, inhibition of DHT-induced AR stability at 46° C. The procedure:
Mouse anti-hAR (BD Biosciences, San Jose, CA) and rabbit anti-hAR (MilliporeSigma, Burlington, MA) were diluted 1:330 and 1:1000 fold respectively in PBS containing 0.5 mg/mL BSA and 4 μL of the combined diluted AR antibody pair were added to 4 μL of the cell lysate supernatant in a 384-well plate and incubated in the dark for 30 min at room temperature. To each well of the 384-well plate 4 μL of a combined solution of anti-mouse IgG Alpha Donor and anti-rabbit IgG (Fc specific) AlphaLISA® Acceptor beads (Perkin Elmer, Waltham, MA) suspended in 1× lysis buffer was added to yield a final donor and acceptor bead concentrations of 40 μg/mL and 10 μg/mL respectively.
For orientation: In Alpha technology, singlet oxygen from a donor bead excites a nearby acceptor bead.

Assay [3] has as its system AR-V7-mediated PSA promoter-driven transcription in PC3-AR-V7-GFP cells. Put plainly: PSA6.1 promoter driven luciferase reporter assay in PC3-AR-V7-GFP cells. The procedure: PSA6.1 Promoter Driven Luciferase Reporter Assay in PC3-AR-V7-GFP Cells: PC3-AR-V7-GFP cells were bulk transfected with a mixture of FuGENE® HD transfection agent and the PSA-6.1-Luc reporter plasmid (20 ng/well) combined at a 3:1 (μL:μg) ratio in Opti-MEM™ medium (Gibco, Gaithersburg, MD) that had been incubated for 25 min at RT before being added to PC3-AR-V7-GFP cells that were suspended in RPMI 1640 (Gibco) media containing 1% L-glutamine (Invitrogen), and 10% fetal bovine serum (Gemini Bio-products). Bulk transfected PC3-AR-V7-GFP cells were seeded into white opaque 384-well assay plates (Greiner Bio-one, #781080) at 3,000 cells per well in a volume of 40 μL and incubated at 5% CO2, 37° C., and 95% humidity for 24 h. After 24 h, 5 μL of compounds were transferred to assay wells and the plates were returned to the incubator for an additional 24 h before 25 μL of BrightGlo® luciferase reagent (Promega) was added to the wells and the RLU's were captured on a SpectraMax® M5e plate reader (Molecular Devices LLC) as described previously (Fancher et al., Assay Drug Dev Technol. 2019, 17:364-386).
(In general: Reporter assays use an easily measured gene product as a stand-in for the process of interest.)

The mark [4] stands for this setting: PC3-AR-V7-GFP cells, constitutive, read-out: Inhibition AR-V7 PSA-reporter IC50.
The mark [5] stands for this setting: C4-2 CRPC cells, read-out: Inhibition of DHT-induced full length AR PSA reporter IC50.
Setting [6] is: 24 h, 24 h exposure, read-out: IC50 in PSA-Luc AR-V7 reporter assay (potency range in words).
[7] abbreviates: C4-2, 24 h, 24 h exposure, read-out: IC50 in PSA-Luc reporter assay, C4-2 cells (potency range in words).
Where [8] appears, read: b132, read-out: IC50, DHT-induced AR-mediated PSA promoter-driven transcription in C4-2 CRPC cells.

As to `Cc1ccccc1-c1cc(O)c2c(c1)CN(c1nc(C(N)=O)cs1)CCO2` [Compound S1-1], the half-maximal inhibitory concentration (IC50) in assay [1] (C4-2 CRPC cells, listed as 1, read-out: Inhibition of DHT-induced full length AR PSA reporter IC50) was 5.27 µM. For the same compound, in assay [2], the IC50 was below 44 µM. For the same compound, on AR, the “AR thermal stability at 46° C., compound alone” value is “did not stabilize AR” and the “DHT-induced (DHT-enhanced) AR thermal stability at 46° C.” value (from here on “DHT-induced”) is “blocked DHT-enhanced AR thermal stabilization; also recorded: inhibition of DHT-enhanced AR thermal stability”.
Consider `Cc1nc(N)cc(N2CCOc3c(O)cc(-c4ccccc4C)cc3C2)n1` [Compound S1-2], for which the 50% inhibitory concentration (IC50) is 12.2 µM in assay [3] (setting [4]), below 37 µM in assay [1] (setting [5]) and below 44 µM in assay [2].
Turning to `Cc1ccccc1-c1cc(O)c2c(c1)CN(c1nccs1)CCO2` [Compound S1-3], the IC50 in assay [1] (setting [5]) was below 37 µM.
Consider `Cc1ccccc1-c1cc(O)c2c(c1)CN(c1cc(N)ncn1)CCO2` [Compound S1-4], for which the half-inhibitory concentration (IC50) in assay [1] (setting [5]) was below 37 µM.
Same read-out and setting: for `COc1cc(-c2ccc(C)s2)cc2c1OCCN(c1nc(C(N)=O)cs1)C2` [Compound S1-5] the value was below 37 µM.
Take `Cc1nsc(NC(=O)N2CCC(Sc3ccccc3C)CC2)n1` [Compound S2-6]: the concentration for half-maximal inhibition (IC50) in assay [2] was around 28 µM. Further, on AR, the “DHT-enhanced AR stability at 46° C.” value is recorded as “inhibited DHT-enhanced AR stability”; the “Right shift of the DHT EC50” value is given as above 10 fold; the “AR thermal stability at 46° C., compound alone” value is recorded as “did not stabilize AR”; the “DHT-induced” value was “blocked DHT-enhanced AR thermal stabilization; also recorded: inhibition of DHT-enhanced AR thermal stability”. Moreover, at AR, the “Maximum efficacy of DHT-enhanced AR thermal stabilization” value is on record as “reduced the maximum efficacy of DHT-enhanced AR thermal stabilization” and the IC50 turned out to be 4.1 µM. On AR (listed as 6), the “AR thermal stability at 46° C., compound alone” value is “did not enhance AR stability” and the “DHT-induced” value is “inhibited DHT-induced AR stability”.
`Cc1c(-c2ccccc2F)[nH]c2ccc(CNC(=O)CCc3cn[nH]c3)cc12` [Compound S3-11]: the IC50 in assay [3] (setting [6]) was in the range of 10 to 100 µM. For the same compound, the IC50 in assay [3] (setting [4]) came out at 3.13 µM. Besides, in assay [1] (setting [7]), the half-inhibitory concentration (IC50) was in the range of 1 to 10 µM. Further, the concentration for half-maximal inhibition (IC50) in assay [1] (setting [5]) was 4.21 µM. In assay [2], this compound showed a concentration for half-maximal inhibition (IC50) of around 50 µM. Besides, on AR, the “DHT-enhanced AR stability at 46° C.” value was “inhibited DHT-enhanced AR stability”; the “Right shift of the DHT EC50” value was at least 10 fold; the “AR thermal stability at 46° C., compound alone” value is given as “did not stabilize AR”; the “DHT-induced” value is recorded as “blocked DHT-enhanced AR thermal stabilization; also recorded: inhibition of DHT-enhanced AR thermal stability”. Also, on AR, the “Maximum efficacy of DHT-enhanced AR thermal stabilization” value is on record as “reduced the maximum efficacy of DHT” and the IC50 amounted to 29.9 µM.
As to `Cc1c(-c2ccccc2F)[nH]c2ccc(CNC(=O)CCc3cnccn3)cc12` [Compound S3-12], the half-maximal inhibitory concentration (IC50) in assay [3] (setting [6]) is 1 to 10 µM; in assay [1] (setting [7]) it was 1 to 10 µM; in assay [2], above 100 µM; on AR, 52.6 µM.
Regarding `CC(=O)NCCC(=O)NCc1ccc2[nH]c(-c3ccccc3F)c(C)c2c1` [Compound S3-13], the 50% inhibitory concentration (IC50) in assay [3] (setting [6]) is 10 to 100 µM; in assay [1] (setting [8]) it was 40 to 59 µM; in assay [2] it was above 100 µM.
`Cc1c(-c2ccccc2F)[nH]c2ccc(CNC(=O)c3ccc(CO)o3)cc12` [Compound S3-14]: the IC50 was 10 to 100 µM in assay [3] (setting [6]); around 50 µM in assay [2]; 9.46 µM on AR (b133, unit inferred).
For the compound `Cc1c(-c2ccc(F)cc2)[nH]c2ccc(CNC(=O)c3ccc(CO)o3)cc12` [Compound S3-15], the IC50 in assay [3] (setting [6]) was 1 to 10 µM; in assay [1] (setting [7]) it was 1 to 10 µM; in assay [2], around 10 µM; on AR, 86.1 µM.
Take `Cc1cccc2c(-c3ccc(O)c(F)c3)c[nH]c12` [Compound S3-17]: the half-inhibitory concentration (IC50) was 10 to 100 µM in assay [3] (setting [6]), 1 to 10 µM in assay [1] (setting [7]), around 50 µM in assay [2] and 9.46 µM at AR. For the same compound, on AR, the “DHT-enhanced AR stability at 46° C.” value is recorded as “inhibited DHT-enhanced AR stability”.
For the compound `CNC(=O)c1ccc(-c2c[nH]c3c(C)cccc23)cc1` [Compound S3-21], the IC50 in assay [3] (setting [4]) was above 100 µM; in assay [1] (setting [7]) it was 10 to 100 µM; in assay [1] (setting [8]) it was 40 to 59 µM; in assay [2], above 100 µM.
